Measured values from PMC8883477 (Journal of Medicinal Chemistry, 2022).
In brackets after ≈: the same amount, converted by molar mass. Several values for one entry are separate records, joined by “and”; a condition that tells them apart may be missing. Identical values can stand only once.

Tests used:
[1] = target: Keap1 (Kelch domain = aa321–aa609) (Homo sapiens, UniProt Q14145); assay: biochemical; settings: KD SPR, supplementary CSV; ISA format
physchem [2] = settings: pH 7.4
physchem [3] = settings: pH 7.4; remark: listed apart in the source
[4] = DMSO-d6, 25–85 °C

Question: Which Kd [1] does the source give for CN(C)C(=O)[C@H]1CSCc2ccccc2C(=O)OC[C@@H](NC(=O)[C@@H]2CCCN2C(=O)c2ccccc2NS(C)(=O)=O)C(=O)N1 [Compound S8] here?
Answer: The Kd was 15.3 µM.

Question: Which Kd [1] does the source give for CN(C)C(=O)[C@H]1CSCc2ccccc2C(=O)OC[C@@H](NC(=O)[C@@H]2CCCN2C(=O)c2ccccc2-n2cnnn2)C(=O)N1 [Compound S21] here?
Answer: The Kd was 13 µM.

Question: Which Kd [1] does the source give for CN(C)C(=O)[C@H]1CSCc2ccccc2C(=O)OC[C@@H](NC(=O)[C@@H]2CCCN2C(=O)Cc2cccnc2)C(=O)N1 [Compound S16] here?
Answer: Its Kd is 51 µM.

Question: For CC(=O)N1CCC[C@H]1C(=O)N[C@@H]1COC(=O)c2cccc(-c3ccc(C(=O)O)cc3)c2CSC[C@H](C(=O)N(C)C)NC1=O [Compound 64, 4-((4S,7R)-7-((S)-1-Acetylpyrrolidine-2-carboxamido)-4-(dimethylcarbamoyl)-6,10-dioxo-1,3,4,5,6,7,8,10-octahydrobenzo[j][1]oxa[8]thia[5]azacyclododecin-14-yl)benzoic Acid], which logD (physchem [2]) is on record?
Answer: The logD was less than -1.5.

Question: What about the solubility (physchem [3]) of the same compound?
Answer: Its solubility is greater than 850 µM.

Question: With CC(=O)N1CCC[C@H]1C(=O)N[C@@H]1COC(=O)c2ccccc2COC[C@H](C(=O)N(C)C)NC1=O [Compound 6, (4R,7R)-7-((S)-1-Acetylpyrrolidine-2-carboxamido)-N,N-dimethyl-6,10-dioxo-1,3,4,5,6,7,8,10-octahydrobenzo[j][1,8]dioxa[4]azacyclododecine-4-carboxamide] as the compound, how does the “Δδ/T, NHA (cysteine NH)” value [4] read?
Answer: Its value is 3.50 ppb/K.

Question: And the “Δδ/T, NHB (serine NH)” value [4]?
Answer: The value was 3.5 ppb/K and 3.53 ppb/K.

Question: For CC(=O)N1CCC[C@H]1C(=O)N[C@@H]1COC(=O)c2cccc(-c3cc(F)c(C(=O)O)c(F)c3)c2CSC[C@H](C(=O)N(C)C)NC1=O [Compound 78, 4-((4S,7R)-7-((S)-1-Acetylpyrrolidine-2-carboxamido)-4-(dimethylcarbamoyl)-6,10-dioxo-1,3,4,5,6,7,8,10-octahydrobenzo[j][1]oxa[8]thia[5]azacyclododecin-14-yl)-2,6-difluorobenzoic Acid], which logD (physchem [2]) is on record?
Answer: The logD was less than -0.8.

Question: What about the solubility (physchem [3]) of the same compound?
Answer: Its solubility is greater than 1000 µM.

Question: For CC(=O)N(CC(=O)N1CCC[C@H]1C(=O)N[C@@H]1COC(=O)c2ccccc2CSC[C@H](C(=O)N(C)C)NC1=O)c1ccccc1 [Compound S11], which Kd [1] is on record?
Answer: Its Kd is 63.6 µM.

Question: For CC(=O)N1CCC[C@H]1C(=O)N[C@@H]1COC(=O)c2cccc(-c3cc(C)c(C(=O)O)c(C)c3)c2CSC[C@H](C(=O)N(C)C)NC1=O [Compound 77, 4-((4S,7R)-7-((S)-1-Acetylpyrrolidine-2-carboxamido)-4-(dimethylcarbamoyl)-6,10-dioxo-1,3,4,5,6,7,8,10-octahydrobenzo[j][1]oxa[8]thia[5]azacyclododecin-14-yl)-2,6-dimethylbenzoic Acid], which logD (physchem [2]) is on record?
Answer: The logD was less than -1.4.

Question: And the solubility (physchem [3])?
Answer: Its solubility is 965 ± 38 µM (≈ 616 µg/mL).

Question: With COC(=O)CCC(=O)N1CCC[C@H]1C(=O)N[C@@H]1COC(=O)c2ccccc2CSC[C@H](C(=O)N(C)C)NC1=O [Compound S3] as the compound, how does the Kd [1] read?
Answer: The Kd was 17.1 µM.

Question: With CN(C)C(=O)[C@H]1CSCc2ccccc2C(=O)OC[C@@H](NC(=O)[C@@H]2CCCN2C(=O)Cc2cc3ccccc3s2)C(=O)N1 [Compound S13] as the compound, how does the Kd [1] read?
Answer: The Kd was 35.4 µM.

Question: Which Kd [1] does the source give for CN(C)C(=O)[C@H]1CSCc2ccccc2C(=O)OC[C@@H](NC(=O)[C@@H]2CCCN2C(=O)c2cccn(C)c2=O)C(=O)N1 [Compound S7] here?
Answer: The Kd was 14.7 µM.
